Test results from article PMC12396409, “Screening and hit evaluation of a microbial metabolite library against the pathogenic Plasmodium falciparum and Toxoplasma gondii parasites” (International Journal for Parasitology: Drugs and Drug …, 2025).
Where two headings read alike, the source gives them in different places.

How the values were obtained:
[1] = test system: P. falciparum 3D7 parasites; experiment: P. falciparum growth inhibition assay, 1-cycle (72 h treatment), SYBR DNA staining (library screen at 2 μg/mL and dose-response); assay type: cell-based, Plasmodium falciparum; details: for activity at 2 µg/mL: Plasmodium falciparum, 3D7
[2] = test system: P. falciparum 3D7 parasites; experiment: P. falciparum growth inhibition assay, 2-cycle (120 h treatment), delayed-death screen and dose-response; assay type: cell-based, Plasmodium falciparum; details: for activity at 2 µg/mL: Plasmodium falciparum, 3D7
[3] = test system: T. gondii RH strain (RH-Tub-eYFP) tachyzoites; experiment: microbe, parasite or virus in culture; assay type: cell-based, Toxoplasma gondii; details: for percent parasite growth at 2 µg/mL: Toxoplasma gondii
[4] = library screen at 2 μg/mL, 72 h, % growth, replicate 1
[5] = library screen at 2 μg/mL, 72 h, % growth, replicate 2
[6] = library screen at 2 μg/mL, 120 h, % growth, replicate 1
[7] = library screen at 2 μg/mL, 120 h, % growth, replicate 2
[8] = P. falciparum, 72 h, parasite screen 2 μg/mL, % growth, replicate 1
[9] = P. falciparum, 72 h, parasite screen 2 μg/mL, % growth, replicate 2
[10] = P. falciparum, 120 h, parasite screen 2 μg/mL, % growth, replicate 1
[11] = P. falciparum, 120 h, parasite screen 2 μg/mL, % growth, replicate 2
[12] = T. gondii, 72 h, parasite screen 2 μg/mL, % growth, replicate 1
[13] = T. gondii, 72 h, parasite screen 2 μg/mL, % growth, replicate 2

## CC(=O)NCCc1c[nH]c2ccccc12 [Acetyltryptamine, N-]
[1]; [4]
  Pf_72h_%Growth_Rep1: 83.66%
[1]; [5]
  Pf_72h_%Growth_Rep2: 90.45%
[2]; [6]
  Pf_120h_%Growth_Rep1: 84.03%
[2]; [7]
  Pf_120h_%Growth_Rep2: 87.17%
[3]; [4]
  Tg_72h_%Growth_Rep1: 109.38%
[3]; [5]
  Tg_72h_%Growth_Rep2: 85.68%

## CN(N=O)C(=O)N[C@H]1C(O)O[C@H](CO)[C@@H](O)[C@@H]1O (mixture of isomers) [Streptozotocin]
[1]; [8]
  Pf_72h_%Growth_Rep1: 87.59%
[1]; [9]
  Pf_72h_%Growth_Rep2: 86.69%
[2]; [10]
  Pf_120h_%Growth_Rep1: 176.62%
[2]; [11]
  Pf_120h_%Growth_Rep2: 92.69%
[3]; [12]
  Tg_72h_%Growth_Rep1: 87.36%
[3]; [13]
  Tg_72h_%Growth_Rep2: 105.65%

## COc1cc2c(c3oc(=O)c4c(c13)CCOC4=O)C1C=COC1O2 (stereo not shown) [Aflatoxin G1]
[1]
  Pf_72h_%Growth_Rep1: 72.54%
  Pf_72h_%Growth_Rep2: 87.39%
[2]
  Pf_120h_%Growth_Rep1: 145.89%
  Pf_120h_%Growth_Rep2: 92.80%
[3]
  Tg_72h_%Growth_Rep1: 81.49%
  Tg_72h_%Growth_Rep2: 92.08%

## CC[C@H](C)[C@H]1NC(=O)c2c1n(C)c1ccccc1c2=O [Quinolactacin A1]
[1]; [8]
  Pf_72h_%Growth_Rep1: 15.83%
[1]; [9]
  Pf_72h_%Growth_Rep2: 6.94%
[2]; [10]
  Pf_120h_%Growth_Rep1: 17.07%
[2]; [11]
  Pf_120h_%Growth_Rep2: -10.01%
[3]; [12]
  Tg_72h_%Growth_Rep1: 131.04%
[3]; [13]
  Tg_72h_%Growth_Rep2: 75.52%

## Aflatoxin B1
[1]
  Pf_72h_%Growth_Rep1: 79.06%
  Pf_72h_%Growth_Rep2: 85.00%
[2]
  Pf_120h_%Growth_Rep1: 89.63%
  Pf_120h_%Growth_Rep2: 84.39%
[3]
  Tg_72h_%Growth_Rep1: 27.47%
  Tg_72h_%Growth_Rep2: 33.32%

## CC(=O)O[C@H]1CC[C@]2(C)[C@H]3CC[C@]4(C)Oc5cc(C)oc(=O)c5C[C@H]4[C@]3(C)CC[C@H]2C1(C)C [Chevalone B]
[1]; P. falciparum, 2 μg/mL, 72 h
  1) Growth (%) at 72 h: 25.41%
[1]; P. falciparum, 72 h, 2 μg/mL, mean of both replicates, growth (% of control)
  Mean: 25.41
[1]; P. falciparum, 72 h, screen at 2 μg/mL, replicate 1
  Pf_72h_%Growth_Rep1: 12.18%
[1]; P. falciparum, 72 h, screen at 2 μg/mL, replicate 2
  Pf_72h_%Growth_Rep2: 38.64%
[2]; P. falciparum, 2 μg/mL, 120 h
  2) Growth (%) at 120 h: 17.52%
[2]; P. falciparum, 120 h, screen at 2 μg/mL, replicate 1
  Pf_120h_%Growth_Rep1: 13.73%
[2]; P. falciparum, 120 h, screen at 2 μg/mL, replicate 2
  Pf_120h_%Growth_Rep2: 21.31%
[2]; P. falciparum, growth at 72 h / growth at 120 h, 2 μg/mL
  3) Fold change (72 h/120 h): 1.5
[3]; T. gondii, 72 h, screen at 2 μg/mL, replicate 1
  Tg_72h_%Growth_Rep1: 78.55%
[3]; T. gondii, 72 h, screen at 2 μg/mL, replicate 2
  Tg_72h_%Growth_Rep2: 94.84%

## CNC[C@@H]1CC[C@@H](N)[C@@H](O[C@H]2[C@H](O)[C@@H](O[C@H]3OC[C@](C)(O)[C@H](NC)[C@H]3O)[C@H](N)C[C@@H]2N)O1 [Gentamicin C2b]
[1]; [4]
  Pf_72h_%Growth_Rep1: 6.39%
[1]; [5]
  Pf_72h_%Growth_Rep2: 7.30%
[2]; [6]
  Pf_120h_%Growth_Rep1: 7.99%
[2]; [7]
  Pf_120h_%Growth_Rep2: 7.07%
[3]; [4]
  Tg_72h_%Growth_Rep1: 152.97%
[3]; [5]
  Tg_72h_%Growth_Rep2: 86.04%

## CC[C@H](C)[C@H]1C(=O)O[C@H](C(C)C)C(=O)N(C)[C@@H](C(C)C)C(=O)O[C@H](C(C)C)C(=O)N(C)[C@@H](C(C)C)C(=O)O[C@H](C(C)C)C(=O)N1C [Enniatin B1]
[1]; library screen at 2 μg/mL, 72 h, % growth, replicate 1, read-out: Pf_72h_%Growth_Rep1
  activity at 2 µg/mL: 4.56%
[1]; library screen at 2 μg/mL, 72 h, % growth, replicate 2, read-out: Pf_72h_%Growth_Rep2
  activity at 2 µg/mL: 3.05%
[2]; library screen at 2 μg/mL, 120 h, % growth, replicate 1, read-out: Pf_120h_%Growth_Rep1
  activity at 2 µg/mL: 5.98%
[2]; library screen at 2 μg/mL, 120 h, % growth, replicate 2, read-out: Pf_120h_%Growth_Rep2
  activity at 2 µg/mL: 9.66%
[3]; library screen at 2 μg/mL, 72 h, % growth, replicate 1, read-out: Tg_72h_%Growth_Rep1
  percent parasite growth at 2 µg/mL: 0.26%
[3]; library screen at 2 μg/mL, 72 h, % growth, replicate 2, read-out: Tg_72h_%Growth_Rep2
  percent parasite growth at 2 µg/mL: 25.7%

## C=C1c2cccc(O)c2C(=O)C2=C(O)[C@]3(O)C(=O)C(C(N)=O)=C(O)[C@@H](N(C)C)[C@@H]3[C@@H](O)[C@H]12 [BIA-M1467]
[1]; P. falciparum 3D7, 72 h, parasite screen at 2 μg/mL, % growth, replicate 1
  Pf_72h_%Growth_Rep1: 83.43%
[1]; P. falciparum 3D7, 72 h, parasite screen at 2 μg/mL, % growth, replicate 2
  Pf_72h_%Growth_Rep2: 110.33%
[2]; P. falciparum 3D7, 120 h, parasite screen at 2 μg/mL, % growth, replicate 1
  Pf_120h_%Growth_Rep1: 96.98%
[2]; P. falciparum 3D7, 120 h, parasite screen at 2 μg/mL, % growth, replicate 2
  Pf_120h_%Growth_Rep2: 103.99%
[3]; T. gondii, 72 h, parasite screen at 2 μg/mL, % growth, replicate 1
  Tg_72h_%Growth_Rep1: 118.90%
[3]; T. gondii, 72 h, parasite screen at 2 μg/mL, % growth, replicate 2
  Tg_72h_%Growth_Rep2: 95.35%
